{"source": "patent US9012365B2", "about": "“Compatibility agents for herbicidal formulations comprising 2,4-(Dichlorophenoxy) acetic acid salts” (priority 2006, dated 2015)", "format_in_all_cases": "physicochemical", "key": {"[1]": {"test": "Solubility of tested chemical in DI water", "description": "(§1) In example 1, the electrolyte tolerance of 6 chemicals with and without the presence of 2,4-D amine was evaluated in ammonium sulfate system."}, "[2]": {"test": "Solubility of tested chemical in 40% AMS (ammonium sulfate)", "description": "as §1"}, "[3]": {"test": "Electrolyte tolerance: 40% AMS added into 10 g 0.13% tested chemical in DI water", "conditions": "for Appearance, added 40% AMS wt into 10 g 0.13% tested chemical in DI water: at 0 g AMS added, or at all additions (All); for Solubility / compatibility in water or AMS solution (in words): without 2,4-D amine", "description": "as §1"}, "[4]": {"test": "Appearance of 10 g solution of (2.5 wt % ai 2,4-D DMA + tested chemical) after adding 40% AMS", "conditions": "for 0 gram Appearance / Addition Weight of 40% AMS: System was clear after adding / Addition Weight of 40% AMS: System was cloud after adding: 0.13 wt % a.i. of tested chemical, 2.5 wt % ai 2,4-D DMA; for 0 gram Appearance: 0 gram 40% AMS; for Addition Weight of 40% AMS: System was clear after adding / Addition Weight of 40% AMS: System was cloud after adding: 10 g solution; for Appearance, added 40% AMS wt into 10 g (2.5% 2,4-D + 0.13% tested chemical in DI water): at 0 g AMS added, or at all additions (All); for Added 40% AMS wt into 10 g (2.5% 2,4-D + 0.13% tested chemical in DI water), hazy / Added 40% AMS wt into 10 g (2.5% 2,4-D + 0.13% tested chemical in DI water), still clear: Table of Example 1", "description": "In this example, the appearance of a 10 g solution of (2.5 wt % ai 2,4-D DMA+tested chemical) was evaluated after adding 40% AMS"}, "[5]": {"test": "Crystal formation of 2,4-D in 1000 ppm hard water + AMS after post-adding surfactant", "conditions": "for Appearance of sample: 0.069 g surfactant added to 3% 2,4-DMA (50%) + 90% water (1000 ppm hardness) + 7% AMS (40%), room temperature", "source_text": "FIG. 3 is a photograph illustrating the effect of various concentrations of cocoamine-2EO (“Coco-2”) and/or tallow-10EO (“Tallow-10”) on crystal formation of 2,4-D. (A) 0% Coco-2/0% Tallow-10. (B) 100% Coco-2/0% Tallow-10. (C) 45% Coco-2/55% Tallow-10. (D) 50% Coco-2/50% Tallow-10. (E) 55% Coco-2/45% Tallow-10.(F) 60% Coco-2/40% Tallow-10. (G) 0% Coco-2/100% Tallow-10.\nIn FIG. 3, sample (0:0) was 3% 2,4-DMA (50%)+90% water (1000 ppm hardness)+7% AMS (40%) and it readily formed crystals at room temperature.\nThe first sample, (0:0), on the left had no surfactant and it had about 15% crystal at the bottom. The rest of the samples had 0.069 g surfactant post-added to the first sample. […] Sample (0:100) was a little hazy with ˜5% crystal at bottom."}, "[6]": {"test": "Compatibility of 2,4-D DMA premix with 28% N fertilizer (phase diagram, coarse particle formation)", "description": "FIG. 2 is a photograph illustrating the effect of cocoamine-2EO methylchloride on coarse particle formation of 2,4-D ammonium salt. (A) 90% 28% N; 1% 2,4-D DMA; and 9% DI water. (B) 90% 28% N; 1% 2,4-D DMA; 5.5% DI water; and 3.5% Coco 2EO quat.\nHowever, if 10% pre-mixed (8:2 water: 2,4-D DMA-50% ai) is added to 90% 28% N, a hazy system with coarse particles (2,4-D NH4 salt) will form in a few minutes at room temperature."}, "[7]": {"test": "System appearance and pH after adding chemicals into System A", "source_text": "System appearance after adding various chemicals into “System A” which was 100 g of 3% 2,4-D DMA (50%)+90% water (1000 ppm)+7% Ammonium sulfate (40%)."}, "[8]": {"conditions": "added into 100 g System A, added wt 0.815 g Ethoquad, 0.079 g NH4OH, 0.091 g dimethylamine, 1.07 g NaOH"}}, "data": [{"substance": "Castor oil ethoxylate-10EO", "values": [{"measurement": "Solubility of tested chemical in DI Water", "setting": "[1]", "result": "<0.007", "unit": "%"}, {"measurement": "Solubility of testes chemical in 40% AMS", "setting": "[2]", "result": "<0.007", "unit": "%"}, {"measurement": "Appearance, added 40% AMS wt into 10 g 0.13% tested chemical in DI water", "setting": "[3]", "result": "All hazy"}, {"measurement": "Solubility / compatibility in water or AMS solution (in words)", "setting": "[3]", "result": "little compatibility"}, {"measurement": "0 gram Appearance", "setting": "[4]", "result": "Haze"}, {"measurement": "Addition Weight of 40% AMS: System was clear after adding", "setting": "[4]", "result": "Haze"}, {"measurement": "Addition Weight of 40% AMS: System was cloud after adding", "setting": "[4]", "result": 0, "unit": "grams"}, {"measurement": "Appearance, added 40% AMS wt into 10 g (2.5% 2,4-D + 0.13% tested chemical in DI water)", "setting": "[4]", "result": "All hazy"}]}, {"substance": "Castor oil ethoxylate-36EO", "values": [{"measurement": "Solubility of tested chemical in DI Water", "setting": "[1]", "result": ">20", "unit": "%"}, {"measurement": "Solubility of testes chemical in 40% AMS", "setting": "[2]", "result": "<0.036", "unit": "%"}, {"measurement": "Appearance, added 40% AMS wt into 10 g 0.13% tested chemical in DI water", "setting": "[3]", "result": "clear"}, {"measurement": "Added 40% AMS wt into 10 g 0.13% tested chemical in DI water, hazy", "setting": "[3]; no 2,4-D", "result": 3.74, "unit": "hazy g"}, {"measurement": "Added 40% AMS wt into 10 g 0.13% tested chemical in DI water, still clear", "setting": "[3]; no 2,4-D", "result": 3.57, "unit": "g"}, {"measurement": "0 gram Appearance", "setting": "[4]", "result": "Clear"}, {"measurement": "Addition Weight of 40% AMS: System was clear after adding", "setting": "[4]", "result": 1.726, "unit": "grams"}, {"measurement": "Addition Weight of 40% AMS: System was cloud after adding", "setting": "[4]", "result": 2.141, "unit": "grams"}, {"measurement": "Added 40% AMS wt into 10 g (2.5% 2,4-D + 0.13% tested chemical in DI water), hazy", "setting": "[4]", "result": 2.14, "unit": "g"}, {"measurement": "Added 40% AMS wt into 10 g (2.5% 2,4-D + 0.13% tested chemical in DI water), still clear", "setting": "[4]", "result": 1.73, "unit": "g"}, {"measurement": "Appearance, added 40% AMS wt into 10 g (2.5% 2,4-D + 0.13% tested chemical in DI water)", "setting": "[4]", "result": "clear"}, {"measurement": "AMS electrolyte tolerated relative to 55EO castor oil ethoxylate", "setting": "[4]; in 2.5% 2,4-D DMA solution", "result": 3, "unit": "times"}]}, {"substance": "Cocoamine-2EO", "values": [{"measurement": "Solubility of tested chemical in DI Water", "setting": "[1]", "result": "<0.016", "unit": "%"}, {"measurement": "Solubility of testes chemical in 40% AMS", "setting": "[2]", "result": "<0.016", "unit": "%"}, {"measurement": "Appearance, added 40% AMS wt into 10 g 0.13% tested chemical in DI water", "setting": "[3]", "result": "All hazy"}, {"measurement": "Solubility / compatibility in water or AMS solution (in words)", "setting": "[3]", "result": "little compatibility"}, {"measurement": "Compatibility in 2,4-D amine and AMS solution (in words)", "setting": "[4]", "result": "very good compatibility"}, {"measurement": "0 gram Appearance", "setting": "[4]", "result": "Clear"}, {"measurement": "Addition Weight of 40% AMS: System was clear after adding", "setting": "[4]", "result": 2.096, "unit": "grams"}, {"measurement": "Addition Weight of 40% AMS: System was cloud after adding", "setting": "[4]", "result": 2.264, "unit": "grams"}, {"measurement": "Added 40% AMS wt into 10 g (2.5% 2,4-D + 0.13% tested chemical in DI water), hazy", "setting": "[4]", "result": 2.26, "unit": "g"}, {"measurement": "Added 40% AMS wt into 10 g (2.5% 2,4-D + 0.13% tested chemical in DI water), still clear", "setting": "[4]", "result": 2.1, "unit": "g"}, {"measurement": "Appearance, added 40% AMS wt into 10 g (2.5% 2,4-D + 0.13% tested chemical in DI water)", "setting": "[4]", "result": "clear"}, {"measurement": "Appearance of sample", "setting": "[5]", "result": "hazy product without crystals"}, {"measurement": "Appearance of sample", "setting": "[5]; listed as Sample (100:0)", "result": "hazy sample with a little oily sediment at bottom"}]}, {"substance": "Cocoamine-2EO methylchloride", "values": [{"measurement": "Solubility of tested chemical in DI Water", "setting": "[1]", "result": "All clear"}, {"measurement": "Solubility of testes chemical in 40% AMS", "setting": "[2]", "result": "All clear"}, {"measurement": "Appearance, added 40% AMS wt into 10 g 0.13% tested chemical in DI water", "setting": "[3]", "result": "All clear"}, {"measurement": "Solubility / compatibility in water or AMS solution (in words)", "setting": "[3]", "result": "excellent solubility in water and electrolyte tolerance"}, {"measurement": "Compatibility in 2,4-D amine and AMS solution (in words)", "setting": "[4]", "result": "very good compatibility agent"}, {"measurement": "0 gram Appearance", "setting": "[4]", "result": "Clear"}, {"measurement": "Addition Weight of 40% AMS: System was clear after adding", "setting": "[4]", "result": 2.21, "unit": "grams"}, {"measurement": "Addition Weight of 40% AMS: System was cloud after adding", "setting": "[4]", "result": 2.511, "unit": "grams"}, {"measurement": "Added 40% AMS wt into 10 g (2.5% 2,4-D + 0.13% tested chemical in DI water), hazy", "setting": "[4]", "result": 2.51, "unit": "g hazy"}, {"measurement": "Added 40% AMS wt into 10 g (2.5% 2,4-D + 0.13% tested chemical in DI water), still clear", "setting": "[4]", "result": 2.21, "unit": "g"}, {"measurement": "Appearance, added 40% AMS wt into 10 g (2.5% 2,4-D + 0.13% tested chemical in DI water)", "setting": "[4]", "result": "clear"}, {"measurement": "Spray solution obtained", "setting": "[6]; 10% pre-mixed (8:2 Ethoquad C/12W-43.7%: 2,4-D DMA-50% ai) added to 90% 28% N", "result": "non-nozzle plugging spray solution"}, {"measurement": "Effect on formation of coarse particles of the 2,4-D ammonium salt", "setting": "[6]; 28% N fertilizer, room temperature, FIG. 2", "result": "prevent or minimize the formation of coarse particles"}, {"measurement": "pH change of System A (in words)", "setting": "[7]", "result": "only changed slightly"}, {"measurement": "Appearance", "setting": "[7]; [8]", "result": "clear"}, {"measurement": "pH", "setting": "[7]; [8]", "result": 5.2}]}, {"substance": "Hexyl glycoside", "values": [{"measurement": "Solubility of tested chemical in DI Water", "setting": "[1]", "result": "All clear"}, {"measurement": "Solubility of testes chemical in 40% AMS", "setting": "[2]", "result": "All clear"}, {"measurement": "Appearance, added 40% AMS wt into 10 g 0.13% tested chemical in DI water", "setting": "[3]", "result": "All clear"}, {"measurement": "Solubility / compatibility in water or AMS solution (in words)", "setting": "[3]", "result": "excellent solubility in water and electrolyte tolerance"}, {"measurement": "Compatibility in 2,4-D amine and AMS solution (in words)", "setting": "[4]", "result": "poor compatibility agent"}, {"measurement": "0 gram Appearance", "setting": "[4]", "result": "Clear"}, {"measurement": "Addition Weight of 40% AMS: System was clear after adding", "setting": "[4]", "result": 0.179, "unit": "grams"}, {"measurement": "Addition Weight of 40% AMS: System was cloud after adding", "setting": "[4]", "result": 0.359, "unit": "grams"}, {"measurement": "Added 40% AMS wt into 10 g (2.5% 2,4-D + 0.13% tested chemical in DI water), hazy", "setting": "[4]", "result": 0.36, "unit": "g hazy"}, {"measurement": "Added 40% AMS wt into 10 g (2.5% 2,4-D + 0.13% tested chemical in DI water), still clear", "setting": "[4]", "result": 0.18, "unit": "g"}, {"measurement": "Appearance, added 40% AMS wt into 10 g (2.5% 2,4-D + 0.13% tested chemical in DI water)", "setting": "[4]", "result": "clear"}]}, {"substance": "Tallowamine-10EO", "values": [{"measurement": "0 gram Appearance", "setting": "[4]", "result": "Clear"}, {"measurement": "Addition Weight of 40% AMS: System was clear after adding", "setting": "[4]", "result": 1.503, "unit": "grams"}, {"measurement": "Addition Weight of 40% AMS: System was cloud after adding", "setting": "[4]", "result": 1.717, "unit": "grams"}, {"measurement": "Appearance of sample", "setting": "[5]", "result": "dissolved most crystals"}, {"measurement": "Appearance of sample", "setting": "[5]; listed as Sample (0:100)", "result": "a little hazy"}, {"measurement": "Crystal at bottom", "setting": "[5]; 0.069 g surfactant post-added to sample (0:0)", "result": "~5", "unit": "%"}]}]}
